Test results from the OPERA property sets (Mansouri et al. 2018).
Values after ≈ are worked out from the molar mass of the structure shown.

Settings: not given

Going from Cc1cc(NS(=O)(=O)c2ccc(N)cc2)nc(C)n1 to Nc1ccc(O)c2c1C(=O)c1ccccc1C2=O, the solubility falls from 5.79 mM (≈ 1610 µg/mL) to 0.15 mM (≈ 35.9 µg/mL) (39-fold).

Going from O=C(O)c1ccc(Cl)cc1Cl to O=C(O)c1ccc(Cl)c(Cl)c1, the solubility falls from 2.5 mM (≈ 478 µg/mL) to 0.32 mM (≈ 61.1 µg/mL) (7.8-fold).

Going from Cc1cccc(Cl)c1 to O=C(O)c1cc(Cl)cc(Cl)c1, the solubility rises from 0.3 mM (≈ 38 µg/mL) to 0.77 mM (≈ 147 µg/mL) (2.6-fold).

First: ClCCCCCl
Second: CC=CCCl
The solubility of the first is 11-fold higher: 120 mM (≈ 15300 µg/mL) for the first, 11 mM (≈ 1000 µg/mL) for the second.

Going from Cn1c(=O)[nH]c2[nH]c(=O)[nH]c2c1=O to CC(=O)Oc1c(C(C)(C)C)cc([N+](=O)[O-])c(C)c1[N+](=O)[O-], the solubility falls from 27.5 mM (≈ 5000 µg/mL) to 0.0338 mM (≈ 10 µg/mL) (810-fold).

First: O=C(O)c1c(O)cccc1O
Second: O=C(O)c1ccc(Br)cc1
The solubility of the first is 210-fold higher: 62 mM (≈ 9560 µg/mL) for the first, 0.298 mM (≈ 60 µg/mL) for the second.

CNC(=O)O/N=C1\[C@@H](Cl)[C@@H]2C[C@H](C#N)[C@H]1C2 showed a solubility of 8.28 mM (≈ 2000 µg/mL).

Same assay, conditions: 20 °C

Going from C=C(C(=O)O)c1ccccc1 to O=C(O)CCc1ccccc1, the solubility rises from 8.77 mM (≈ 1300 µg/mL) to 39.3 mM (≈ 5900 µg/mL) (4.5-fold).

Going from Clc1ccc(-c2cc(Cl)c(Cl)c(Cl)c2Cl)cc1Cl to Clc1ccc(-c2cc(Cl)c(Cl)cc2Cl)cc1Cl, the solubility rises from 1.48e-05 mM (≈ 0.00533 µg/mL) to 4.1e-05 mM (≈ 0.0134 µg/mL) (2.8-fold).

CCCCOC(=O)CC and CCCCCC(=O)OC are within 1.5-fold of each other in solubility: 11.5 mM (≈ 1500 µg/mL) for the first, 10.2 mM (≈ 1330 µg/mL) for the second.

Compared with O=C(O)c1nc[nH]c1C(=O)O, N[C@@H](CSSC[C@H](N)C(=O)O)C(=O)O is 4-fold lower in solubility: 3.2 mM (≈ 500 µg/mL) for the first, 0.791 mM (≈ 190 µg/mL) for the second.

Compared with Nc1cnn(-c2ccccc2)c(=O)c1Cl, Cc1occc1C(=O)Nc1ccccc1 is 3.6-fold lower in solubility: 1.8 mM (≈ 400 µg/mL) for the first, 0.497 mM (≈ 100 µg/mL) for the second.

Going from Clc1cc(Cl)c(-c2c(Cl)c(Cl)cc(Cl)c2Cl)cc1Cl to Clc1ccc(Cl)c(-c2cc(Cl)c(Cl)c(Cl)c2)c1, the solubility rises from 1.14e-05 mM (≈ 0.00451 µg/mL) to 4.84e-05 mM (≈ 0.0158 µg/mL) (4.2-fold).

Compared with CC(Cl)C(C)Cl (centres undefined), CCSc1nc(NC(C)C)nc(NC(C)C)n1 is 71-fold lower in solubility: 4.42 mM (≈ 562 µg/mL) for the first, 0.0626 mM (≈ 16 µg/mL) for the second.

Compared with Clc1ccc2c(c1)Oc1cc(Cl)c(Cl)c(Cl)c1O2, Clc1cc(-c2cccc(Cl)c2Cl)cc(Cl)c1Cl is 29-fold higher in solubility: 1.34e-06 mM (≈ 0.00043 µg/mL) for the first, 3.93e-05 mM (≈ 0.0128 µg/mL) for the second.

First: Oc1nc(O)c2nccnc2n1
Second: Oc1cccnc1
The solubility of the first is 46-fold lower: 7.62 mM (≈ 1250 µg/mL) for the first, 350 mM (≈ 33300 µg/mL) for the second.

Going from CON(C)C(=O)Nc1ccc(Br)c(Cl)c1 to CN(C)C(=O)Nc1ccc(Oc2ccc(Cl)cc2)cc1, the solubility falls from 0.119 mM (≈ 35 µg/mL) to 0.0127 mM (≈ 3.7 µg/mL) (9.4-fold).

O=C(O)CN(CP(=O)(O)O)CP(=O)(O)O and NCCS(=O)(=O)O are within 1.5-fold of each other in solubility: 943 mM (≈ 248000 µg/mL) for the first, 645 mM (≈ 80700 µg/mL) for the second.

First: Cc1cc(Cl)ccc1N=CN(C)C
Second: Clc1ccc(-c2ccc(Cl)c(Cl)c2)c(Cl)c1
The solubility of the first is 11000-fold higher: 1.37 mM (≈ 270 µg/mL) for the first, 0.000126 mM (≈ 0.0368 µg/mL) for the second.

C[C@H](CCC(=O)O)[C@H]1CC[C@H]2[C@@H]3[C@@H](O)C[C@@H]4C[C@H](O)CC[C@]4(C)[C@H]3CC[C@]12C and C[C@@]12C(=O)OC(=O)[C@]1(C)C1CCC2O1 are within 1.5-fold of each other in solubility: 0.108 mM (≈ 42.4 µg/mL) for the first, 0.153 mM (≈ 30 µg/mL) for the second.

Compared with O=C1C=C2CC3(O)COc4c(ccc(O)c4O)C3=C2C=C1O (centres undefined), O=c1cc(O)cc[nH]1 is 28-fold higher in solubility: 2 mM (≈ 600 µg/mL) for the first, 56.3 mM (≈ 6250 µg/mL) for the second.

Compared with CCc1ccc(CC)cc1, CC(C)OC(=O)C(C)N(C(=O)c1ccccc1)c1ccc(F)c(Cl)c1 (centres undefined) is 5-fold lower in solubility: 0.185 mM (≈ 24.8 µg/mL) for the first, 0.0373 mM (≈ 13.6 µg/mL) for the second.

Compared with N#CCC(N)=O, COC(=O)c1cc(Cl)cc(N)c1Cl is 2800-fold lower in solubility: 1550 mM (≈ 130000 µg/mL) for the first, 0.545 mM (≈ 120 µg/mL) for the second.

First: CCOP(=S)(OCC)Oc1cc(C)nc(N(CC)CC)n1
Second: COP(=S)(OC)Oc1ccc([N+](=O)[O-])c(Cl)c1
The solubility of the first is 11-fold lower: 0.0119 mM (≈ 3.97 µg/mL) for the first, 0.134 mM (≈ 40 µg/mL) for the second.

Compared with CN=C=S, CC1CNCCN1 (centres undefined) is 42-fold higher in solubility: 104 mM (≈ 7600 µg/mL) for the first, 4340 mM (≈ 435000 µg/mL) for the second.

Compared with COCCCNc1nc(NC(C)C)nc(SC)n1, CCCCC(C)(C)CCC is 76-fold lower in solubility: 1.18 mM (≈ 320 µg/mL) for the first, 0.0155 mM (≈ 2.2 µg/mL) for the second.

Same assay, conditions: 21 °C

Work on O=C(O)CCCCCCCCCCCC(=O)O yielded a solubility of 6.14 mM (≈ 1500 µg/mL).

Same assay, conditions: 22 °C

Going from CCCOC=O to CCCC(C)C(=O)Nc1ccc(C)c(Cl)c1 (centres undefined), the solubility falls from 250 mM (≈ 22000 µg/mL) to 0.0355 mM (≈ 8.5 µg/mL) (7000-fold).

Cc1cc(S(=O)(=O)c2ccccc2)ccc1NS(=O)(=O)C(F)(F)F and O=C1NC(=O)C(c2ccccc2)(c2ccccc2)N1 are within 1.5-fold of each other in solubility: 0.158 mM (≈ 60 µg/mL) for the first, 0.127 mM (≈ 32 µg/mL) for the second.

Going from OCc1ccccc1O to O=C(c1ccccc1)c1c(O)cc(O)cc1O, the solubility falls from 507 mM (≈ 63000 µg/mL) to 13.5 mM (≈ 3100 µg/mL) (38-fold).

Same assay, conditions: 23 °C

Compared with Nc1ccc(C(=O)O)c(O)c1, CCCC(C)(C)C(=O)Nc1ccc(Cl)cc1 is 120-fold lower in solubility: 11 mM (≈ 1690 µg/mL) for the first, 0.0951 mM (≈ 22.8 µg/mL) for the second.

For NC(=O)CC(N)C(=O)O (centres undefined), the solubility was 172 mM (≈ 22700 µg/mL).

Same assay, conditions: 24 °C

CN(C)CCCN1c2ccccc2Sc2ccccc21 and CN(C)CCC=C1c2ccccc2CCc2ccccc21 are within 1.5-fold of each other in solubility: 0.0499 mM (≈ 14.2 µg/mL) for the first, 0.035 mM (≈ 9.71 µg/mL) for the second.

First: COP(=S)(Oc1cc(Cl)c(Br)cc1Cl)c1ccccc1 (centres undefined)
Second: CC(=O)OCCN1CCN(CCCN2c3ccccc3Sc3ccc(Cl)cc32)CC1
The solubility of the first is 270-fold lower: 7.28e-05 mM (≈ 0.03 µg/mL) for the first, 0.02 mM (≈ 8.92 µg/mL) for the second.

First: O=NN1CCCCC1
Second: O=C(O)c1ccc(O)c(C(=O)O)c1
The solubility of the first is 410-fold higher: 670 mM (≈ 76500 µg/mL) for the first, 1.65 mM (≈ 300 µg/mL) for the second.

In the case of O=P(OC(CCl)CCl)(OC(CCl)CCl)OC(CCl)CCl, the solubility is reported as 0.0162 mM (≈ 7 µg/mL).

Same assay, conditions: 25 °C

First: C=CCN(CC=C)C(=O)CCl
Second: C=CCCCCCCC
The solubility of the first is 13000-fold higher: 113 mM (≈ 19700 µg/mL) for the first, 0.00887 mM (≈ 1.12 µg/mL) for the second.

First: Clc1ccc(-c2c(Cl)cc(Cl)cc2Cl)cc1
Second: Clc1ccc(Cl)c(-c2cc(Cl)ccc2Cl)c1
The solubility of the first is 6-fold higher: 0.000312 mM (≈ 0.0911 µg/mL) for the first, 5.24e-05 mM (≈ 0.0153 µg/mL) for the second.

Compared with NC(=O)c1ccccc1O, Cc1cccc(O)c1C is 2.5-fold higher in solubility: 15 mM (≈ 2060 µg/mL) for the first, 37.4 mM (≈ 4570 µg/mL) for the second.

Going from C#CCC to CCCCC=O, the solubility rises from 53.1 mM (≈ 2870 µg/mL) to 136 mM (≈ 11700 µg/mL) (2.6-fold).

Going from O=C(O)C(c1ccccc1)c1ccccc1 to Clc1ccc2c(c1)Oc1cc(Cl)ccc1O2, the solubility falls from 0.598 mM (≈ 127 µg/mL) to 6.6e-05 mM (≈ 0.0167 µg/mL) (9100-fold).

CC1CCCC(C)(C)C1 (centres undefined) showed a solubility of 0.014 mM (≈ 1.77 µg/mL).
